From PubChem BioAssay (NCI)
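Assay format: 96-well plates, 48-hour exposure. The concentration for full growth arrest is given as TGI.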

Key:
Experiment in all cases: NCI tumour cell line growth inhibition, 48 h
SK-MEL-28 melanoma = system: SK-MEL-28 melanoma
CAKI-1 renal = system: CAKI-1 renal
MALME-3M melanoma = system: MALME-3M melanoma
M14 melanoma = system: M14 melanoma
DU-145 prostate = system: DU-145 prostate
UACC-62 melanoma = system: UACC-62 melanoma
SF-539 CNS = system: SF-539 CNS
TK-10 renal = system: TK-10 renal
RPMI-8226 leukemia = system: RPMI-8226 leukemia
ACHN renal = system: ACHN renal
OVCAR-8 ovarian = system: OVCAR-8 ovarian
U251 CNS = system: U251 CNS
MCF7 breast = system: MCF7 breast
786-0 renal = system: 786-0 renal
HOP-92 NSCLC = system: HOP-92 NSCLC
T-47D breast = system: T-47D breast
HCC-2998 colon = system: HCC-2998 colon
MDA-N = system: MDA-N
HOP-62 NSCLC = system: HOP-62 NSCLC
KM12 colon = system: KM12 colon
MDA-MB-435 = system: MDA-MB-435
A549 NSCLC = system: A549 NSCLC
IGROV1 ovarian = system: IGROV1 ovarian
CCRF-CEM leukemia = system: CCRF-CEM leukemia
A498 renal = system: A498 renal
SF-295 CNS = system: SF-295 CNS
OVCAR-3 ovarian = system: OVCAR-3 ovarian
OVCAR-5 ovarian = system: OVCAR-5 ovarian
UACC-257 melanoma = system: UACC-257 melanoma
BT-549 breast = system: BT-549 breast
SK-MEL-2 melanoma = system: SK-MEL-2 melanoma
HS 578T breast = system: HS 578T breast
SN12C renal = system: SN12C renal
SNB-75 CNS = system: SNB-75 CNS
MDA-MB-231 breast = system: MDA-MB-231 breast
SW-620 colon = system: SW-620 colon
SR leukemia = system: SR leukemia
NCI-H460 lung = system: NCI-H460 lung
NCI-H23 lung = system: NCI-H23 lung
EKVX NSCLC = system: EKVX NSCLC
SNB-19 CNS = system: SNB-19 CNS
SF-268 CNS = system: SF-268 CNS
UO-31 renal = system: UO-31 renal
RXF 393 renal = system: RXF 393 renal
MOLT-4 leukemia = system: MOLT-4 leukemia
HL-60(TB) leukemia = system: HL-60(TB) leukemia
LOX IMVI melanoma = system: LOX IMVI melanoma
SK-MEL-5 melanoma = system: SK-MEL-5 melanoma
PC-3 prostate = system: PC-3 prostate
NCI-H226 lung = system: NCI-H226 lung
OVCAR-4 ovarian = system: OVCAR-4 ovarian
NCI/ADR-RES ovarian = system: NCI/ADR-RES ovarian
HCT-15 colon = system: HCT-15 colon
COLO 205 colon = system: COLO 205 colon
K-562 leukemia = system: K-562 leukemia
SK-OV-3 ovarian = system: SK-OV-3 ovarian
HCT-116 colon = system: HCT-116 colon
HT29 colon = system: HT29 colon
NCI-H522 lung = system: NCI-H522 lung

For `Cc1cc(=O)oc2cc(OC(=O)Nc3ccccc3)ccc12`, the TGI (SK-MEL-28 melanoma) was over 100 µM, the TGI (CAKI-1 renal) was over 100 µM and the TGI (MALME-3M melanoma) was over 100 µM. It also gave a TGI (M14 melanoma) of over 100 µM, a TGI (DU-145 prostate) of over 100 µM and a TGI (UACC-62 melanoma) of over 100 µM. It also gave a TGI (SF-539 CNS) of over 100 µM, a TGI (TK-10 renal) of over 100 µM and a TGI (RPMI-8226 leukemia) of 62.4 µM. For the same compound, the TGI (ACHN renal) was over 100 µM, the TGI (OVCAR-8 ovarian) was over 100 µM and the TGI (U251 CNS) was over 100 µM. It also gave a TGI (MCF7 breast) of over 100 µM, a TGI (786-0 renal) of over 100 µM and a TGI (HOP-92 NSCLC) of 75.4 µM. It also gave a TGI (T-47D breast) of over 100 µM, a TGI (HCC-2998 colon) of over 100 µM and a TGI (MDA-N) of over 100 µM. For the same compound, the TGI (HOP-62 NSCLC) was over 100 µM, the TGI (KM12 colon) was over 100 µM and the TGI (MDA-MB-435) was over 100 µM. For the same compound, the TGI (A549 NSCLC) was over 100 µM, the TGI (IGROV1 ovarian) was over 100 µM and the TGI (CCRF-CEM leukemia) was 74.2 µM. The TGI (A498 renal) was over 100 µM, the TGI (SF-295 CNS) was over 100 µM and the TGI (OVCAR-3 ovarian) was over 100 µM. The TGI (OVCAR-5 ovarian) was over 100 µM, the TGI (UACC-257 melanoma) was over 100 µM and the TGI (BT-549 breast) was over 100 µM. It also gave a TGI (SK-MEL-2 melanoma) of over 100 µM, a TGI (HS 578T breast) of over 100 µM and a TGI (SN12C renal) of over 100 µM. The TGI (SNB-75 CNS) was over 100 µM, the TGI (MDA-MB-231 breast) was over 100 µM and the TGI (SW-620 colon) was over 100 µM. For the same compound, the TGI (SR leukemia) was 83.5 µM, the TGI (NCI-H460 lung) was over 100 µM and the TGI (NCI-H23 lung) was over 100 µM. For the same compound, the TGI (EKVX NSCLC) was over 100 µM, the TGI (SNB-19 CNS) was over 100 µM and the TGI (SF-268 CNS) was over 100 µM. It also gave a TGI (UO-31 renal) of over 100 µM, a TGI (RXF 393 renal) of over 100 µM and a TGI (MOLT-4 leukemia) of over 100 µM. For the same compound, the TGI (HL-60(TB) leukemia) was 44.9 µM, the TGI (LOX IMVI melanoma) was over 100 µM and the TGI (SK-MEL-5 melanoma) was over 100 µM. It also gave a TGI (PC-3 prostate) of over 100 µM, a TGI (NCI-H226 lung) of over 100 µM and a TGI (OVCAR-4 ovarian) of over 100 µM. For the same compound, the TGI (NCI/ADR-RES ovarian) was over 100 µM, the TGI (HCT-15 colon) was over 100 µM and the TGI (COLO 205 colon) was over 100 µM. The TGI (K-562 leukemia) was over 100 µM, the TGI (SK-OV-3 ovarian) was over 100 µM and the TGI (HCT-116 colon) was over 100 µM. For the same compound, the TGI (HT29 colon) was over 100 µM and the TGI (NCI-H522 lung) was over 100 µM.
